In PubChem BioAssay AID248 (DTP/NCI, 2004):
Values joined by “and” are separate entries in the source; they are usually repeats but may differ in a detail not shown here. Equal entries are not always repeated. Toxic doses and inconclusive results are not listed. Rule as the data show it: active = T/C of 150% or more; inactive = T/C below 125%.

System: L1210 leukemia ip in BDF1 mice, survival T/C
Experiment: NCI In Vivo Anticancer Drug Screen. Data for tumor model L1210 Leukemia (intraperitoneal) in B6D2F1 (BDF1) mice
Settings: endpoint: mean survival time, higher = longer survival
Method in brief: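 Survival endpoint. Drug-treated group vs vehicle group, expressed as T divided by C. Tumor passaged by transplantation.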

[1] = dose: 100.0 mg/kg/injection, schedule: Q01DX001 (ip), vehicle: saline
[2] = dose: 100.0 mg/kg/injection, schedule: Q01DX009 (ip), vehicle: saline
[3] = dose: 200.0 mg/kg/injection, schedule: Q01DX001 (ip), vehicle: saline
[4] = dose: 100.0 mg/kg/injection, schedule: Q04DX003 (ip), vehicle: Klucel (hydroxypropylcellulose) (HPC)
[5] = dose: 100.0 mg/kg/injection, schedule: Q04DX003 (ip), vehicle: saline with Tween-80
[6] = dose: 200.0 mg/kg/injection, schedule: Q04DX003 (ip), vehicle: Klucel (hydroxypropylcellulose) (HPC)
[7] = dose: 400.0 mg/kg/injection, schedule: Q04DX003 (ip), vehicle: Klucel (hydroxypropylcellulose) (HPC)
[8] = dose: 100.0 mg/kg/injection, schedule: Q01DX009 (ip), vehicle: saline with Tween-80
[9] = dose: 200.0 mg/kg/injection, schedule: Q01DX009 (ip), vehicle: saline with Tween-80
[10] = dose: 200.0 mg/kg/injection, schedule: Q04DX003 (ip), vehicle: saline with Tween-80
[11] = dose: 400.0 mg/kg/injection, schedule: Q01DX009 (ip), vehicle: saline with Tween-80
[12] = dose: 400.0 mg/kg/injection, schedule: Q04DX003 (ip), vehicle: saline with Tween-80
[13] = dose: 100.0 mg/kg/injection, schedule: Q01DX001 (ip), vehicle: carboxymethylcellulose (CMC)
[14] = dose: 200.0 mg/kg/injection, schedule: Q01DX001 (ip), vehicle: carboxymethylcellulose (CMC)
[15] = dose: 400.0 mg/kg/injection, schedule: Q01DX001 (ip), vehicle: carboxymethylcellulose (CMC)
[16] = dose: 100.0 mg/kg/injection, schedule: Q01DX009 (ip), vehicle: Klucel (hydroxypropylcellulose) (HPC)
[17] = dose: 200.0 mg/kg/injection, schedule: Q01DX009 (ip), vehicle: Klucel (hydroxypropylcellulose) (HPC)
[18] = dose: 400.0 mg/kg/injection, schedule: Q01DX009 (ip), vehicle: Klucel (hydroxypropylcellulose) (HPC)

Measured: T/C

CCC1CN1P(=O)(N(CC)CC)N1CC1CC (stereo not given)
inactive: dose: 29.0 mg/kg/injection, schedule: Q01DX015 (ip), vehicle: saline 100 % of control | dose: 44.0 mg/kg/injection, schedule: Q01DX015 (ip), vehicle: saline 105 % of control | dose: 66.0 mg/kg/injection, schedule: Q01DX015 (ip), vehicle: saline 109 % of control | dose: 89.0 mg/kg/injection, schedule: Q01DX001 (ip), vehicle: saline 111 % of control | [1] 103 % of control | [2] 107 % of control | dose: 100.0 mg/kg/injection, schedule: Q01DX015 (ip), vehicle: saline 110 % of control | dose: 133.0 mg/kg/injection, schedule: Q01DX001 (ip), vehicle: saline 119 % of control | dose: 150.0 mg/kg/injection, schedule: Q01DX009 (ip), vehicle: saline 107 % of control | [3] 121 % of control

C/C=C/P(=O)(c1ccccc1)c1ccccc1
inactive: dose: 50.0 mg/kg/injection, schedule: Q01DX001 (ip), vehicle: saline 110 % of control | [1] 110 % of control | [3] 95 % of control | dose: 400.0 mg/kg/injection, schedule: Q01DX001 (ip), vehicle: saline 104 % of control

COc1cc(NC(=O)Nc2cc(OC)c(OC)c(OC)c2)cc(OC)c1OC
inactive: [4] 96 % of control | [5] 93 % of control | [6] 98 % of control | [7] 91 % of control

O=C(O)CSCc1nc2ccccc2[nH]1
inactive: [8] 92 % of control | [5] 101 % of control | [9] 100 % of control | [10] 92 % of control | [11] 96 % of control | [12] 95 % of control

COC(=O)Cc1cc(=O)c2ccccc2[nH]1
inactive: dose: 50.0 mg/kg/injection, schedule: Q01DX009 (ip), vehicle: saline 94 % of control | [2] 103 % of control | dose: 100.0 mg/kg/injection, schedule: Q04DX003 (ip), vehicle: saline 96 % of control | dose: 200.0 mg/kg/injection, schedule: Q01DX009 (ip), vehicle: saline 93 % of control | dose: 200.0 mg/kg/injection, schedule: Q04DX003 (ip), vehicle: saline 96 % of control | dose: 400.0 mg/kg/injection, schedule: Q04DX003 (ip), vehicle: saline 91 % of control

O=C(O)CCCCCCCCC(=O)c1ccccc1
inactive: [8] 95 % of control | [9] 91 % of control | [11] 95 % of control

COC(=O)C1=C(O)C(=O)N(c2ccccc2)C1
inactive: dose: 100.0 mg/kg/injection, schedule: Q01DX001 (ip), vehicle: saline with Tween-80 88 % of control

Nc1ncnc2c1ncn2C1CC(COP(=O)(O)O)C(O)C1O (stereo not given)
inactive: dose: 37.0 mg/kg/injection, schedule: Q04DX003 (ip), vehicle: saline 105 % of control | dose: 75.0 mg/kg/injection, schedule: Q01DX001 (ip), vehicle: saline 107 % of control | dose: 75.0 mg/kg/injection, schedule: Q04DX003 (ip), vehicle: saline 110 % of control | dose: 150.0 mg/kg/injection, schedule: Q01DX001 (ip), vehicle: saline 87 % of control | dose: 150.0 mg/kg/injection, schedule: Q04DX003 (ip), vehicle: saline 100 % of control

CCOC(=O)CN(c1ccccc1C(=O)OC)S(=O)(=O)c1ccc(C)cc1
inactive: [13] 112 % of control | [14] 114 % of control | [15] 107 % of control

CCOCCOCCOC(C)Oc1ccc(Cl)cc1C (stereo not given)
inactive: dose: 100.0 mg/kg/injection, schedule: Q04DX002 (ip), vehicle: saline with Tween-80 123 % of control | dose: 200.0 mg/kg/injection, schedule: Q04DX002 (ip), vehicle: saline with Tween-80 100 % of control | dose: 400.0 mg/kg/injection, schedule: Q04DX002 (ip), vehicle: saline with Tween-80 103 % of control

CC(O)C(=O)[O][Hg][c]1ccccc1 (stereo not given)
inactive: dose: 2.5 mg/kg/injection, schedule: Q01DX009 (ip), vehicle: saline with Tween-80 91 % of control | dose: 2.5 mg/kg/injection, schedule: Q04DX003 (ip), vehicle: saline with Tween-80 92 % of control | dose: 5.0 mg/kg/injection, schedule: Q01DX009 (ip), vehicle: saline with Tween-80 94 % of control | dose: 5.0 mg/kg/injection, schedule: Q04DX003 (ip), vehicle: saline with Tween-80 105 % of control | dose: 10.0 mg/kg/injection, schedule: Q01DX009 (ip), vehicle: saline with Tween-80 98 % of control | dose: 10.0 mg/kg/injection, schedule: Q04DX003 (ip), vehicle: saline with Tween-80 108 % of control

COc1ccc(OC)c(/C=C/C(=O)NCC(O)CO)c1 (stereo not given)
inactive: [5] 105 % of control | [10] 105 % of control | [12] 103 % of control

Nc1nc(=S)[nH]c(C(=O)O)c1Cc1ccccc1
inactive: dose: 10.0 mg/kg/injection, schedule: Q04DX003 (ip), vehicle: Klucel (hydroxypropylcellulose) (HPC) 101 % of control | dose: 20.0 mg/kg/injection, schedule: Q01DX009 (ip), vehicle: Klucel (hydroxypropylcellulose) (HPC) 92 % of control | dose: 20.0 mg/kg/injection, schedule: Q04DX003 (ip), vehicle: Klucel (hydroxypropylcellulose) (HPC) 95 % of control | dose: 40.0 mg/kg/injection, schedule: Q01DX009 (ip), vehicle: Klucel (hydroxypropylcellulose) (HPC) 104 % of control | dose: 40.0 mg/kg/injection, schedule: Q04DX003 (ip), vehicle: Klucel (hydroxypropylcellulose) (HPC) 98 % of control | dose: 80.0 mg/kg/injection, schedule: Q01DX009 (ip), vehicle: Klucel (hydroxypropylcellulose) (HPC) 98 % of control

CCCc1c(C)[nH]c2ccccc12
inactive: [16] 104 % of control | [4] 105 % of control | [17] 92 % of control | [6] 104 % of control | [18] 95 % of control | [7] 105 % of control

O=C(O)/C=C\C(=O)Nc1ccc(F)cc1
inactive: [5] 98 % of control | [10] 101 % of control | [12] 101 % of control

O=C(O)C1CCCCC1C(=O)Nc1cccc2ccccc12 (stereo not given)
inactive: [16] 105 % of control | [17] 96 % of control | [18] 93 % of control

O=[N+]([O-])c1cc(C(F)(F)F)cc([N+](=O)[O-])c1N/N=C/c1ccc(Cl)cc1
inactive: dose: 12.5 mg/kg/injection, schedule: Q01DX009 (ip), vehicle: carboxymethylcellulose (CMC) 95 % of control and 102 % of control | dose: 25.0 mg/kg/injection, schedule: Q01DX009 (ip), vehicle: carboxymethylcellulose (CMC) 97 % of control and 88 % of control | [13] 100 % of control and 103 % of control | dose: 100.0 mg/kg/injection, schedule: Q04DX002 (ip), vehicle: carboxymethylcellulose (CMC) 100 % of control and 105 % of control | dose: 100.0 mg/kg/injection, schedule: Q04DX003 (ip), vehicle: carboxymethylcellulose (CMC) 92 % of control and 101 % of control | [14] 103 % of control and 91 % of control | dose: 200.0 mg/kg/injection, schedule: Q04DX002 (ip), vehicle: carboxymethylcellulose (CMC) 98 % of control and 90 % of control | dose: 200.0 mg/kg/injection, schedule: Q04DX003 (ip), vehicle: carboxymethylcellulose (CMC) 94 % of control and 96 % of control | [15] 103 % of control and 105 % of control | dose: 400.0 mg/kg/injection, schedule: Q01DX009 (ip), vehicle: carboxymethylcellulose (CMC) 86 % of control and 90 % of control | dose: 400.0 mg/kg/injection, schedule: Q04DX002 (ip), vehicle: carboxymethylcellulose (CMC) 86 % of control and 87 % of control | dose: 400.0 mg/kg/injection, schedule: Q04DX003 (ip), vehicle: carboxymethylcellulose (CMC) 92 % of control and 96 % of control

N#C/C(=C\c1cccc2ccccc12)c1ccccc1
inactive: dose: 25.0 mg/kg/injection, schedule: Q04DX002 (ip), vehicle: Klucel (hydroxypropylcellulose) (HPC) 92 % of control | dose: 50.0 mg/kg/injection, schedule: Q04DX002 (ip), vehicle: Klucel (hydroxypropylcellulose) (HPC) 98 % of control | [16] 95 % of control | dose: 100.0 mg/kg/injection, schedule: Q04DX002 (ip), vehicle: Klucel (hydroxypropylcellulose) (HPC) 95 % of control | [17] 93 % of control | [18] 100 % of control
